Laboratory results reported in US5620676A, “Biologically active ATP analogs” (priority 1995, dated 1997).
Values joined by “and” are separate entries in the source; they are usually repeats but may differ in a detail not shown here. Equal values may be shown once. “Also recorded” adds a separate entry of the source. Read-outs that look alike come from different tables or passages of the source.

What was measured:
[1] = target: T1, adenylyl cyclase linked P2Y receptor (C6 rat glioma cells) (Rattus norvegicus, UniProt Q9EPX4); experiment: Inhibition of adenylyl cyclase in C6 rat glioma cells; assay type: cell-based; conditions: for selectivity for the adenylyl cyclase linked (C6 cell) receptor: versus phospholipase C linked turkey erythrocyte receptor
T1 construct: endogenous in cells; host or cells: C6 rat glioma cells
T1 sequence (Q9EPX4 whole entry): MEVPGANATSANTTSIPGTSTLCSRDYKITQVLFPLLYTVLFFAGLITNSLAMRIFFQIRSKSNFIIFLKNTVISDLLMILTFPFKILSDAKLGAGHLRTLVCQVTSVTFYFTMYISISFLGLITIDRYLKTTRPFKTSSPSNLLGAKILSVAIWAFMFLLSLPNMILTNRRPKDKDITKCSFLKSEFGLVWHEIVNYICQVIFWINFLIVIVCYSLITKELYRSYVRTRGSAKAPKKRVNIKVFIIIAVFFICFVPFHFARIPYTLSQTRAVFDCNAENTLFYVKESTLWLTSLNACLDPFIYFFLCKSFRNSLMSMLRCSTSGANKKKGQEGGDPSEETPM
Outline: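 C6 cells labelled 2 h with [3H]adenine, preincubated 10 min at 37 °C in HEPES-buffered Eagle's medium (pH 7.5) with 200 μM IBMX. Stimulated 10 min with 10 μM isoproterenol plus varied nucleotide concentrations. Stopped with ice-cold 5% trichloroacetic acid.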

[2] = target: T2, P2X receptor (saphenous artery) (Oryctolagus cuniculus, UniProt G1U3D6); experiment: Contraction of rabbit saphenous artery; conditions: rabbit saphenous artery; for activation at 10 µM: read-out: response at 10 μM relative to the contraction produced by 1 μM α,MeATP, saph. artery
T2 construct: and rabbit saphenous artery; from tissue; host or cells: rabbit saphenous artery
T2 sequence (G1U3D6 1-399): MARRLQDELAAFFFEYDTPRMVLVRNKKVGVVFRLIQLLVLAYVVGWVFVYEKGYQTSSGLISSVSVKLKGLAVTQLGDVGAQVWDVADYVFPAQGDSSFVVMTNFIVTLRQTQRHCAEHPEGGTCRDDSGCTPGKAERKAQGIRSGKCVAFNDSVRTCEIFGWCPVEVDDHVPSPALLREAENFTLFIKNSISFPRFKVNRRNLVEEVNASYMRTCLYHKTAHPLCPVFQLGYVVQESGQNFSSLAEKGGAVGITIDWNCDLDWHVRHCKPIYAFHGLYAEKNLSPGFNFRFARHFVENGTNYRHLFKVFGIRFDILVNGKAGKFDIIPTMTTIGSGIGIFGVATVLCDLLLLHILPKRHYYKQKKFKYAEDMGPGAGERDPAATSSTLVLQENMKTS
Outline: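 Contraction of isolated rabbit saphenous artery, standard organ-bath methods; responses at 10 μM expressed as percentage of contraction produced by 1 μM α,MeATP. Highest analogue concentrations tested were 3-30 […].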

[3] = target: P2Y receptor (mesenteric artery); experiment: Relaxation of rabbit mesenteric artery; conditions: log molar units
Excerpt: Muscular relaxation/contraction: Relaxant responses mediated via P2Y receptors were examined in guinea pig taenia coli, rabbit aorta, and rabbit mesenteric artery, as described by Hoyle et al. (Br. J. Pharmacol., 107, 367-374 (1992a)), Burnstock et al., (Br. J. Pharmacol., 90, 383-391 (1987a)), and Rubino et al., (Eur. J. Pharmacol., 212, 237-240 (1992)).

[4] = target: T3, P2Y receptor (turkey erythrocyte membranes) (Meleagris gallopavo, UniProt P49652); experiment: Stimulation of phospholipase C (inositol phosphate formation) in turkey erythrocyte membranes; assay type: biochemical; conditions: for maximal level (100%) of [3H]inositol phosphate accumulation: with GTPγS and maximal concentration of agonist
T3 construct: from tissue; host or cells: washed turkey erythrocytes, ghosts prepared by hypotonic lysis
T3 sequence (P49652 whole entry): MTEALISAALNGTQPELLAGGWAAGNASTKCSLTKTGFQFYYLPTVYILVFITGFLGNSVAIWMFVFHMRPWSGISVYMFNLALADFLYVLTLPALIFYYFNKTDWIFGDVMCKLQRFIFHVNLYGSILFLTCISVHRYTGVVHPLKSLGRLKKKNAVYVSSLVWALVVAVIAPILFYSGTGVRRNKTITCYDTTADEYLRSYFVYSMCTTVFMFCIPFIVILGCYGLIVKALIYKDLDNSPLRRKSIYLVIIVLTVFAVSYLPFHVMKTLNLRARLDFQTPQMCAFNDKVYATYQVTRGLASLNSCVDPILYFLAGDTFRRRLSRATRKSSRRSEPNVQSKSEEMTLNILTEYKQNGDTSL
Outline: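 Erythrocytes were labelled 18-24 h at 37 °C with [3H]myoinositol, and ghosts were made by hypotonic lysis. Ghosts (≈175 μg protein) were incubated 5 min at 30 °C in Hepes buffer pH 7.0 with 1 μM GTPγS and nucleotide analogs. Total [3H]inositol phosphates were purified by anion exchange; K0.5 averaged from 3-8 dose-response curves.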

[5] = turkey erythrocyte membranes, mean ± S.E.M. for at least 2 determinations, read-out: phosphatidyl inositol metabolism (K0.5, nM) erythrocyte

Row | Structure (SMILES) | selectivity for the adenylyl cyclase linked (C6 cell) receptor [1] | activity/potency in words, saphenous artery [2] | activation at 10 µM [2] | relaxation pD2, mes. artery [3] | activity/potency in words, turkey erythrocyte ([4]; turkey erythrocyte membranes) | EC50 [4, 5] | EC50 ([4]; turkey erythrocyte membranes, read-out: K0.5) | maximal level (100%) of [3H]inositol phosphate accumulation [4] | IC50 ([1]; C6 rat glioma cells, 10 μM isoproterenol, read-out: K0.5 values (in nM) for inhibition of adenylyl cyclase in C6 cells) | fold diminished potency upon N6-methylation, turkey erythrocyte ([4]; relative to 2-(5-hexenyl)thio-ATP) | EC50 ([4]; turkey erythrocyte membranes, read from graph, read-out: K0.5)
1 | N#CCCCCCCSc1nc(N)c2ncn([C@@H]3O[C@H](COP(=O)(O)OP(=O)(O)OP(=O)(O)O)[C@@H](O)[C@H]3O)c2n1 [2-(6-Cyanohexylthio)-ATP, 2-(6-Cyanohexylthio)adenosine-5'-triphosphate] | 3.9 -fold | at best weak agonists in the saphenous artery | 9.2% | 7.0 | at least two orders of magnitude more potent; also recorded: about three orders of magnitude more potent | 10 ± 5 nM | 5 to 30 nM and ~10 nM | 6000 cpm |  |  | 
2 | C=CCCCCSc1nc(NC)c2ncn([C@@H]3O[C@H](COP(=O)(O)OP(=O)(O)OP(=O)(O)O)[C@@H](O)[C@H]3O)c2n1 [N^6 -Me-2-(5-hexenyl)-thio-ATP, N^6 -Me-2-(5-hexenylthio)adenosine 5'-triphosphate] | 81 -fold |  | 1.5% | 6.0 |  | 26 ± 7 nM |  | 9150 cpm | 0.32 nM | 2.6 -fold | 10 nM
